Like-named read-outs stand apart in the source and are kept apart here.
How the values were obtained:
Format in all cases: biochemical
human α-thrombin = human α-thrombin (Homo sapiens, UniProt P00734); experiment: Thrombin (fIIa) chromogenic assay, IC50
Factor Xa = target: T1, Factor Xa (Homo sapiens, UniProt P00742); experiment: Factor Xa chromogenic assay, IC50; conditions: 30 min incubation; read-out: fxa IC50 (30 min)
T1 construct: purchased Enzyme Research Laboratories, Inc. (South Bend, Ind.)
T1 sequence (P00742 235-488 limits assumed): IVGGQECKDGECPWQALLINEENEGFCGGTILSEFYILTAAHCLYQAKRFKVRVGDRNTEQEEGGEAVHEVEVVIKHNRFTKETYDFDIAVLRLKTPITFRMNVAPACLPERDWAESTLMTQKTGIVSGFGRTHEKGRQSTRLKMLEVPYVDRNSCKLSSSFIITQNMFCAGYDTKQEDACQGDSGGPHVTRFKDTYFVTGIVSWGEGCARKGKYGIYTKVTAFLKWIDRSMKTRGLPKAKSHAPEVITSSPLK
T1 sequence (P00742 41-179 partner limits assumed): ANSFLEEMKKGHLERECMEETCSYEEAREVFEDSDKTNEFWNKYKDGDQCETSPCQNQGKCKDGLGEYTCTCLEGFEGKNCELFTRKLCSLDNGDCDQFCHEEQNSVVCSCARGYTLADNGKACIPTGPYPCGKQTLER
Description: (§1) The ability of compounds of the present invention to act as a selective inhibitor of thrombin activity was assessed by determining the concentration of test-compound which inhibited the activity of this enzyme by 50%, (IC50), and comparing this value to that determined for all or some of the following related serine proteases: recombinant tissue plasminogen activator (rt-PA), plasmin, activated protein C, chymotrypsin, factor Xa and trypsin.
(§2) The buffer used for all assays was HBSA (10 mM HEPES, pH 7.5, 150 mM sodium chloride, 0.1% bovine serum albumin).
(§3) The assay for IC50 determinations was conducted by combining in appropriate wells of a Corning microtiter plate, 50 microliters of HBSA, 50 microliters of the test compound at a specified concentration (covering a broad concentration range) diluted in HBSA (or HBSA alone for V0 (uninhibited velocity) measurement), and 50 microliters of the enzyme diluted in HBSA. Following a 30 minute incubation at ambient temperature, 50 microliters of the substrate at the concentrations specified below were added to the wells, yielding a final total volume of 200 microliters. The initial velocity of chromogenic substrate hydrolysis was measured by the change in absorbance at 405 nm using a Thermo Max® Kinetic Microplate Reader over a 5 minute period in which less than 5% of the added substrate was utilized. The concentration of added inhibitor which caused a 50% decrease in the initial rate of hydrolysis was defined as the IC50 value.
Factor Xa catalytic activity was determined using the chromogenic substrate S-2765 (N-benzyloxycarbonyl-D-arginine-L-glycine-L-arginine-p-n itroaniline ), obtained from DiaPharma Group (Franklin, Ohio). All substrates were reconstituted in deionized water prior to use. […] Purified human Factor X was obtained from Enzyme Research Laboratories, Inc. (South Bend, Ind.) and Factor Xa (FXa) was activated and prepared from it as described [Bock, P. E., Craig, P. A., Olson, S. T., and Singh, P. Arch, Biochem. Biophys, 273:375-388 (1989)]. The enzyme was diluted into HBSA prior to assay in which the final concentration was 0.25 nM.

human plasmin = human plasmin (Homo sapiens, UniProt P00747); experiment: Plasmin chromogenic assay, IC50; conditions: 30 min incubation
human plasmin, sequence (P00747 581-810 limits assumed): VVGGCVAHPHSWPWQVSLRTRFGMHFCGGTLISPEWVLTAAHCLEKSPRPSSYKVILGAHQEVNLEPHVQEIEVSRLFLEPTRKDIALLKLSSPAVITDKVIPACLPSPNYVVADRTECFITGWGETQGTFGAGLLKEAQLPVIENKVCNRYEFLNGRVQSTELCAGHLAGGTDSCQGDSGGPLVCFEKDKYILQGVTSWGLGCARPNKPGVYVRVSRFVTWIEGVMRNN
human plasmin, sequence (P00747 97-580 partner limits assumed): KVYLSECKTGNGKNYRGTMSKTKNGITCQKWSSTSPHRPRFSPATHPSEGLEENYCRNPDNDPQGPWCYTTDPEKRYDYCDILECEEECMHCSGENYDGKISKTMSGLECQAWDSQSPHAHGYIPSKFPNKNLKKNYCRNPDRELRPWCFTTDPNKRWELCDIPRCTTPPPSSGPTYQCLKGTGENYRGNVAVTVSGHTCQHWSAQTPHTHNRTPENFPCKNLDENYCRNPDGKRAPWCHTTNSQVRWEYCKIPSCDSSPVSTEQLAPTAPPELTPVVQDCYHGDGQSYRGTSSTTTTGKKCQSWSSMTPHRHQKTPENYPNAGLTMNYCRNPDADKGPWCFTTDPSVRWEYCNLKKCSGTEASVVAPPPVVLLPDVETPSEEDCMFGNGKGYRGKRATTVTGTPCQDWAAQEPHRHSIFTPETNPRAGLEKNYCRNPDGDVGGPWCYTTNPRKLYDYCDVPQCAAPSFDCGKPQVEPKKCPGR
Description: as §1, §2, §3
Plasmin catalytic activity was determined using the chromogenic substrate, S-2366 [L-pyroglutamyl-L-prolyl-L-arginine-p-nitroaniline hydrochloride], which was obtained from DiaPharma group. The substrate was made up in deionized water followed by dilution in HBSA prior to the assay in which the final concentration was 300 micromolar (about 2.5-times Km). Purified human plasmin was obtained from Enzyme Research Laboratories, Inc. The enzyme was diluted into HBSA prior to assay in which the final concentration was 1.0 nM.

[1] = target: T2, bovine pancreatic trypsin (Bos taurus, UniProt P00760); experiment: Trypsin chromogenic assay, IC50; conditions: 30 min incubation
T2 construct: bovine pancreatic trypsin was obtained from Worthington Biochemical Corp; purchased Worthington Biochemical Corp. TRL3; host or cells: bovine pancreas
T2 sequence (P00760 24-246): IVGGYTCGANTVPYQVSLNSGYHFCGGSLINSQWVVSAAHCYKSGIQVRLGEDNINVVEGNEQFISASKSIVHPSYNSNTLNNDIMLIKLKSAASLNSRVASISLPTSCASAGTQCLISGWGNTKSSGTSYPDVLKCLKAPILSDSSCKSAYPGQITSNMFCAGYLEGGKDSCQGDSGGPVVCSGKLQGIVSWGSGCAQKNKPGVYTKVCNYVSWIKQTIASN
Description: as §1, §2, §3
Trypsin catalytic activity was determined using the chromogenic substrate, S-2222 (benzoyl-L-isoleucine-L-glutamic acid-[gamma-methyl ester]-L-arginine-p-nitroanilide), which was obtained from DiaPharma Group. […] Purified (3×-crystallized; TRL3) bovine pancreatic trypsin was obtained from Worthington Biochemical Corp. The enzyme was reconstituted in deionized water and diluted into HBSA prior to assay in which the final concentration was 0.5 nM.

[2] = 0 min incubation of enzyme with inhibitor, read-out: fIIa IC50 (0 min)
[3] = 30 min incubation of enzyme with inhibitor, read-out: fIIa IC50 (30 min)

Compound | IC50 (human α-thrombin; [2]) | IC50 (human α-thrombin; [3]) | IC50 (Factor Xa) | IC50 (human plasmin) | IC50 [1]
Cc1nc(N)ccc1CNC(=O)Cn1c(C)cnc(NNC(=O)OCC(C)(C)C)c1=O [Example 31, 1-[5-(2-Amino-6-methylpyridyl)methylcarboxamidomeyhyl-]6-methyl-3-(2-neopentyloxycarbonylhydrazino)pyrazinone, Hydrotrifluoroacetate] | ≤ 0.1 µM | ≤ 0.1 µM | ≥ 100 µM | ≥ 100 µM | 2.5 to 100 µM
C#CCOC(=O)NNc1ncc(C)n(CC(=O)NCc2ccc(N)nc2C)c1=O [Example 30, 1-[5-(2-Amino-6-methylpyridyl)methylcarboxamidomethyl]-6-methyl-3-(2-propargyloxycarbonylhydrazino)pyrazinone, Hydrotrifluoroacetate] | ≤ 0.1 µM | ≤ 0.1 µM | ≥ 100 µM | ≥ 100 µM | ≥ 100 µM
C#CCOC(=O)N(CC)Nc1ncc(C)n(CC(=O)NCc2ccc(N)nc2C)c1=O [Example 58, 1-[5-(2-Amino-6-methylpyridyl)methylcarboxamidomeyhyl-]3-[2-ethyl-2-(propargyloxycarbonyl)hydrazino]-6-methylpyrazinone, Hydrotrifluoroacetate] | ≤ 0.1 µM | ≤ 0.1 µM | ≥ 100 µM | ≥ 100 µM | ≥ 100 µM
COc1ccccc1CNC(=O)NNc1ncc(C)n(CC(=O)NCc2ccc(N)nc2C)c1=O [Example 48, 1-[5-(2-Amino-6-methylpyridyl)methylcarboxamidomethyl]-3-[2-(2-methoxybenzylcarbamyl)hydrazino]-6-methylpyrazinone, Hydrotrifluoroacetate] | ≤ 0.1 µM | ≤ 0.1 µM | ≥ 100 µM | ≥ 100 µM | ≥ 100 µM
Cc1nc(N)ccc1CNC(=O)Cn1c(C)cnc(NNC(=O)Cc2ccccc2)c1=O [Example 12, 1-[5-(2-Amino-6-methylpyridyl)methylcarboxamidomeyhyl-]6-methyl-3-(2-phenylacetylhydrazino)pyrazinone, Hydrotrifluoroacetate] | ≤ 0.1 µM | ≤ 0.1 µM | ≥ 100 µM | 2.5 to 100 µM | ≥ 100 µM
Cc1nc(N)ccc1CNC(=O)Cn1c(C)cnc(NNC(=O)NCCC(C)(C)C)c1=O [Example 50, 1-[5-(2-Amino-6-methylpyridyl)methylcarboxamidomethyl]-6-methyl-3-[2-(3,3-dimethylbutylcarbamyl)hydrazino]pyrazinone, Hydrotrifluoroacetate] | ≤ 0.1 µM | ≤ 0.1 µM | 2.5 to 100 µM | ≥ 100 µM | 2.5 to 100 µM
1-[5-(2-Amino-6-methylpyridyl)methylcarboxamidomethyl]-3-[2-(2-chlorobenzenesulfonyl)hydrazino]-6-methylpyrazinone, Hydrotrifluoroacetate [Example 53] | ≤ 0.1 µM | ≤ 0.1 µM | 2.5 to 100 µM | ≥ 100 µM | 2.5 to 100 µM
Cc1nc(N)ccc1CNC(=O)Cn1c(C)cnc(NNS(=O)(=O)c2ccccc2C(F)(F)F)c1=O [Example 45, 1-[5-(2-Amino-6-methylpyridyl)methylcarboxamidomethyl]-6-methyl-3-[2-(2-trifluoromethylbenzenesulfonyl)hydrazino]pyrazinone, Hydrotrifluoroacetate] | ≤ 0.1 µM | ≤ 0.1 µM | 2.5 to 100 µM | ≥ 100 µM | ≥ 100 µM
1-[5-(2-Amino-6-methylpyridyl)methylcarboxamidomethyl]-3-[2-(4-chlorobenzenesulfonyl)hydrazino]-6-methylpyrazinone, Hydrotrifluoroacetate [Example 55] | ≤ 0.1 µM | ≤ 0.1 µM | ≥ 100 µM | ≥ 100 µM | ≥ 100 µM
Cc1nc(N)ccc1CNC(=O)Cn1c(C)cnc(NNS(=O)(=O)c2ccccc2F)c1=O [Example 54, 1-[5-(2-Amino-6-methylpyridyl)methylcarboxamidomethyl]-3-[2-(2-fluorobenzenesulfonyl)hydrazino]-6-methyl pyrazinone, Hydrotrifluoroacetate] | ≤ 0.1 µM | ≤ 0.1 µM | ≥ 100 µM | ≥ 100 µM | ≥ 100 µM
Cc1nc(N)ccc1CNC(=O)Cn1c(C)cnc(NNC(=O)NCc2ccc3c(c2)OCO3)c1=O [Example 49, 1-[5-(2-Amino-6-methylpyridyl)methylcarboxamidomethyl]-6-methyl-3-(2-piperonylcarbamylhydrazino)pyrazinone, Hydrotrifluoroacetate] | ≤ 0.1 µM | ≤ 0.1 µM | ≥ 100 µM | ≥ 100 µM | ≥ 100 µM
Cc1nc(N)ccc1CNC(=O)Cn1c(C)cnc(NNC(=O)NCc2ccc(Cl)cc2)c1=O [Example 37, 1-[5-(2-Amino-6-methylpyridyl)methylcarboxamidomethyl]-3-[2-(4-chlorobenzylcarbamyl)hydrazino]-6-methylpyrazinone, Hydrotrifluoroacetate] | ≤ 0.1 µM | ≤ 0.1 µM | ≥ 100 µM | ≥ 100 µM | ≥ 100 µM
Cc1nc(N)ccc1CNC(=O)Cn1c(C)cnc(NNS(=O)(=O)c2ccccc2)c1=O [Example 22, 1-[5-(2-Amino-6-methylpyridyl)methylcarboxamidomethyl]-6-methyl-3-(2-phenylsulfonylhydrazino)pyrazinone, Hydrotrifluoroacetate] | ≤ 0.1 µM | ≤ 0.1 µM | ≥ 100 µM | ≥ 100 µM | 2.5 to 100 µM
Cc1nc(N)ccc1CNC(=O)Cn1c(C)cnc(NNC(=O)OCc2ccccc2Cl)c1=O [Example 32, 1-[5-(2-Amino-6-methylpyridyl)methylcarboxamidomethyl]-3-[2-(2-chlorobenzyloxycarbonyl)hydrazino]-6-methylpyrazinone, Hydrotrifluoroacetate] | ≤ 0.1 µM | ≤ 0.1 µM | ≥ 100 µM | 2.5 to 100 µM | ≥ 100 µM
C#CCOC(=O)N(C)Nc1ncc(C)n(CC(=O)NCc2ccc(N)nc2C)c1=O [Example 59, 1-[5-(2-Amino-6-methylpyridyl)methylcarboxamidomethyl]-6-methyl-3-[2-methyl-2-(propargyloxycarbonyl)hydrazino]pyrazinone, Hydrotrifluoroacetate] | ≤ 0.1 µM | ≤ 0.1 µM | ≥ 100 µM | ≥ 100 µM | 2.5 to 100 µM
COc1ccc(S(=O)(=O)NNc2ncc(C)n(CC(=O)NCc3ccc(N)nc3C)c2=O)cc1 [Example 57] | ≤ 0.1 µM | ≤ 0.1 µM | 2.5 to 100 µM | ≥ 100 µM | ≥ 100 µM
C=CCOC(=O)NNc1ncc(C)n(CC(=O)NCc2ccc(N)nc2C)c1=O [Example 25, 3-(2-Allyloxycarbonylhydrazino)-1-[5-(2-amino-6-methylpyridyl)methylcarboxamidomethyl]-6-methylpyrazinone, Hydrotrifluoroacetate] | ≤ 0.1 µM | ≤ 0.1 µM | ≥ 100 µM | ≥ 100 µM | ≥ 100 µM
C=CCCOC(=O)NNc1ncc(C)n(CC(=O)NCc2ccc(N)nc2C)c1=O [Example 28, 1-[5-(2-Amino-6-methylpyridyl)methylcarboxamidomethyl]-3-[2-(3-butenyloxycarbonyl)hydrazino]-6-methylpyrazinone, Hydrotrifluoroacetate] | ≤ 0.1 µM | ≤ 0.1 µM | 2.5 to 100 µM | ≥ 100 µM | ≥ 100 µM
